{"source": "paper PMC12030277", "about": "“Is Copper-61 the New Gallium-68? Automation and Preclinical Proof-of-Concept of ^61Cu-Based Radiopharmaceuticals for Prostate Cancer Imaging” (Pharmaceuticals, 2025)", "key": {"[1]": {"system": "LNCaP (PSMA-positive) cells", "experiment": "In vitro uptake assay, LNCaP cells", "format": "cell-based, human", "settings": "0.5 nM, 37 °C, up to 2 h, later time points; % of total radioactivity per well, gamma counter; mean ± SEM, N = 2–5 in duplicate", "method": "(§1) The human PCa cell lines LNCaP (PSMA-positive) (American Type Culture Collection (ATCC), CRL-1740; Manassas, VA, USA) and DU145 (PSMA-negative) (kindly provided by Dr. Carmen Jerónimo Lab at IPO-Porto) were maintained at 37 °C in a humidified incubator enriched with 5% carbon dioxide. The cells were grown in Roswell Park Memorial Institute (RPMI) 1640 medium (Sigma-Aldrich, R4130; St. Louis, MI, USA) supplemented with 0.2% (w/v) sodium bicarbonate (Sigma-Aldrich, S6297), 10% heat-inactivated fetal bovine serum (FBS; Gibco, A5256801; Grand Island, NY, USA), 1 mM sodium pyruvate (Gibco, 11360-070), and 1% antibiotic-antimycotic (Anti-Anti 100X, Gibco, 15240-062). LNCaP and DU145 cells were seeded in 12-well plates (0.3 × 10^6 cells/well/mL) 48 h before the experiments and the day before, respectively. The multiwell plates used for the LNCaP cell line were previously coated with poly-l-lysine (PLL, Innoprot; Bizcaia, Spain) for 4–6 h to prevent cell detachment during the assays. Both PSMA-positive and -negative cells were incubated with 0.5 nM of ^61Cu-radiopharmaceuticals at 37 °C for different time periods up to 2 h. […] The radioactivity of both the supernatant and cellular fraction was measured in a CRC-55tW gamma-well counter (Mirion Technologies; Atlanta, GA, USA). Cellular uptake was calculated as a percentage of the total radioactivity measured for each well. […]"}, "[2]": {"system": "PSMA-positive tumor xenografts (LNCaP)", "design": "species or system mice", "settings": "mouse, in vivo", "method": "Animal studies were approved by the Animal Welfare Committee of the Institute of Nuclear Sciences Applied to Health (ICNAS; ORBEA 01-2018) and the Portuguese National Authority for Animal Health (DGAV). Male athymic Swiss nude mice aged 9-12 weeks (34–36 g) were supplied by ICNAS, housed under pathogen-free conditions in individually ventilated cages with controlled temperature/humidity (22 °C/55%) environment on a 12 h light–dark cycle, and provided with food and water ad libitum. […] Tumor growth was monitored with a digital caliper and PET/MRI scans were performed when tumor xenografts reached 5–7 mm in diameter (~75–130 mm^3, as calculated by the formula Length × Width^2 × 0.5), approximately 9 weeks after inoculation.\n[^61Cu]Cu-DOTAGA-PSMA-I&T (~0.37 MBq/g; ~3.56 nmol; N = 2) or [^61Cu]Cu-NODAGA-PSMA-I&T (~0.37 MBq/g; ~0.653 nmol; N = 3) in NaCl 0.9% with 10% EtOH was intravenously injected into the tail vein of anesthetized mice. […] Respiratory rate and body temperature were monitored throughout the imaging procedures (SA Instruments, Inc.; Stony Brook, NY, USA). […] For quantitative PET imaging processing, PMOD v3.6 and FUSION Tool (PMOD Technologies; Zürich, Switzerland; RRID:SCR_016547) were used to delineate volumes of interest (VOIs) on the PET images co-registered with the respective MRI. […] Uptake values were expressed as percentage of injected dose per gram of tissue (% ID/g)."}, "[3]": {"system": "DU145 (PSMA-negative) cells", "experiment": "In vitro uptake assay, DU145 cells", "format": "cell-based, human", "settings": "0.5 nM, 37 °C, up to 2 h, N = 2–5 in duplicate", "method": "as §1"}, "[4]": {"design": "species or system mice", "settings": "mouse"}}, "data": [{"compound": "O=C(O)CC[C@H](NC(=O)N[C@@H](CCCCNC(=O)CCCCCCC(=O)NCCCC[C@@H](NC(=O)[C@@H](Cc1ccccc1)NC(=O)[C@@H](Cc1ccc(O)c(I)c1)NC(=O)CCC(C(=O)O)N1CCN(CC(=O)O)CCN(CC(=O)O)CC1)C(=O)O)C(=O)O)C(=O)O", "note": "(stereo partly shown) [[^61Cu]Cu-NODAGA-PSMA-I&T, metal not drawn]", "values": [{"measurement": "maximum cellular uptake in LNCaP cells", "setting": "[1]", "result": "13.16 ± 0.15", "unit": "%"}, {"measurement": "clearance route", "setting": "[2]", "result": "clearance predominantly through the renal pathway"}, {"measurement": "cellular uptake in DU145 cells", "setting": "[3]", "result": "remained at basal levels"}, {"measurement": "in vivo stability", "setting": "[4]", "result": "remarkable in vivo metabolic stability"}]}, {"compound": "[^61Cu]Cu-DOTAGA-PSMA-I&T", "values": [{"measurement": "maximum cellular uptake in LNCaP cells", "setting": "[1]", "result": "14.09 ± 0.84", "unit": "%"}, {"measurement": "cellular uptake in DU145 cells", "setting": "[3]", "result": "remained at basal levels"}, {"measurement": "in vivo stability", "setting": "[4]", "result": "poor kinetic stability in vivo"}]}]}
